Source: patent US9249105B2, “Crystalline forms of an alkoxyimidazol-1-ylmethyl biphenyl carboxylic acid” (Theravance Biopharma R&D IP, LLC, priority 2010, dated 2016)
Where a name gives a salt, the structure may show the parent alone.

Legend:
[1] = Thermal stability on storage, purity by HPLC; type: physicochemical; conditions: 40° C. (open container), 75% relative humidity, one month; for Purity Change: HPLC area percentage (% AUC)
Description: Weighed samples of the crystalline materials were stored at 40° C. (open container) and 75% relative humidity, for one month. The samples were then analyzed by the following HPLC method:
Column: Agilent Zorbox SB-C18, 4.6×250 mm, 5 μm (Part No. 880975-902). Mobile Phase A: 80% H2O, 20% MeCN, 0.01% TFA. Mobile Phase B: 80% MeCN, 20% H2O, 0.01% TFA. Flow rate: 1 mL/min. Injection Volume: 20 μL. Detector: 250 nm.
The purity of the samples was determined by HPLC area percentage (% AUC).

[2] = target: T1, AT1 receptor (Homo sapiens, UniProt P30556); assay: AT1 receptor binding (inhibitory constant)
T1 sequence (P30556 1-359): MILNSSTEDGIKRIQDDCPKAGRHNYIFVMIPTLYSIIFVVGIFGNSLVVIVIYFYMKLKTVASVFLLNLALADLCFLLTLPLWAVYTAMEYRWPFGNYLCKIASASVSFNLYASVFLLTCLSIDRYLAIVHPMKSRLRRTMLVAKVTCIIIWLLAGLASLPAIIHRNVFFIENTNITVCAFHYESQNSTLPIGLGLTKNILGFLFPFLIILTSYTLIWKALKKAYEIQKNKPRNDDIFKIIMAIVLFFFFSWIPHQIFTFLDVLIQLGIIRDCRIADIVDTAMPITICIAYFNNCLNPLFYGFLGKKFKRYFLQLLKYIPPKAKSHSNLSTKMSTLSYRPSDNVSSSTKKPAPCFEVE

[3] = Solubility in buffers over 24 hours; type: physicochemical; conditions: pH>3, room temperature, FIG. 16
Description: Samples of the crystalline materials were evaluated over a 24 hour period at several pH ranges. The following buffer systems were used: • HCl buffer pH @ 1.15 • HCl buffer pH @ 1.94 • Potassium biphthate buffer pH @ 2.97 • Acetate buffer pH @ 4.17 • Acetate buffer pH @ 5.16 • Phosphate buffer pH @ 6.04 • Phosphate buffer pH @ 7.0
Samples (7-8 mg) of the crystalline materials were combined with 2 mL of each of the buffers in a 5 mL glass vial. The vials were then mounted onto an automatic rotator and rotate for 24 hours at room temperature. The resulting suspensions were filtered using a 0.45 μm filter (PVDF membrane) into a clean vial for HPLC analysis.

[4] = Differential scanning calorimetry (thermal stability); type: physicochemical; conditions: heating ramp 10° C./min
Description: Differential scanning calorimetry (DSC) experiments were performed using a TA Instruments Model Q-100 module with a Thermal Analyst controller. Data were collected and analyzed using TA Instruments Universal Analysis software. A sample of each crystalline form was accurately weighed into a covered aluminum pan. After a 5 minute isothermal equilibration period at 5° C., the sample was heated using a linear heating ramp of 10° C./min from 0° C. to 200° C.

[5] = Dynamic moisture sorption (DMS) assessment; type: physicochemical; conditions: 25° C.
Description: Dynamic moisture sorption (DMS) measurements were performed for each crystalline form using a VTI atmospheric microbalance, SGA-100 system (VTI Corp., Hialeah, Fla. 33016). A weighed sample was used and the humidity was set at the ambient value at the start of the analysis. The DMS analysis consisted of a scan rate of 5% RH/step over the full humidity range of 5% RH to 90% RH. The DMS run was performed isothermally at 25° C.

[6] = Reslurrying of hemiedisylate salt form I and form II; type: physicochemical; conditions: EtOH/MTBE with or without water, room temperature
Description: Hemiedisylate salt form II (50 mg, 80 μmol) and hemiedisylate salt form I (50 mg, 80 μmol) were combined with a premixed solution of EtOH (420 μL) and MTBE (1.6 mL, 13 mmol). The mixture was capped and stirred at room temperature. The resulting solids were filtered and washed with dioxane to yield a solid (86 mg), which was determined to be hemiedisylate salt form II.
Hemiedisylate salt form II (50 mg, 80 μmol) and hemiedisylate salt form I (50 mg, 80 μmol) were combined with a premixed solution of EtOH (420 μL) and MTBE (1.6 mL, 13 mmol). Water (20 μL) was added and the mixture was capped and stirred at room temperature. The resulting solids were filtered and washed with dioxane to yield a solid (67 mg), which was determined to be hemiedisylate salt form II.

| Structure (SMILES) | Purity Change [1] [%] | Ki [2] [nM] | thermal stability on storage [1] | solubility compared with the freebase [3] | temperature below which no significant thermal decomposition is seen (DSC) [4] [°C] | weight gain, humidity range 5% RH up to 90% RH ([5]; 5% RH to 90% RH) | weight gain when exposed to up to 70% RH [5] | relative stability of crystalline forms on reslurrying [6] | DMS moisture sorption/desorption behaviour ([5]; 5% RH to 90% RH) |
| --- | --- | --- | --- | --- | --- | --- | --- | --- | --- |
| CCOc1nc(CC)c(CNC(=O)[C@@H](S)CC(C)C)n1Cc1ccc(-c2ccccc2C(=O)O)cc1F [freebase form, 4′-{2-ethoxy-4-ethyl-5-[((S)-2-mercapto-4-methylpentanoylamino)methyl]imidazol-1-ylmethyl}-3′-fluorobiphenyl-2-carboxylic acid, reference compound] | −2.9 |  |  |  |  |  |  |  |  |
| CCOc1nc(CC)c(CNC(=O)[C@@H](S)CC(C)C)n1Cc1ccc(-c2ccccc2C(=O)O)cc1F [compound of formula I, 4′-{2-ethoxy-4-ethyl-5-[((S)-2-mercapto-4-methylpentanoylamino)methyl]imidazol-1-ylmethyl}-3′-fluorobiphenyl-2-carboxylic acid] |  | ≤ 100 |  |  |  |  |  |  |  |
| CCOc1nc(CC)c(CNC(=O)[C@@H](S)CC(C)C)n1Cc1ccc(-c2ccccc2C(=O)O)cc1F [hemiedisylate form II, Crystalline Hemiedisylate Salt Form II of 4′-{2-Ethoxy-4-ethyl-5-[((S)-2-mercapto-4-methylpentanoylamino)methyl]imidazol-1-ylmethyl}-3′-fluorobiphenyl-2-carboxylic Acid] | −0.3 |  | more stable than the previously known freebase form | more soluble than the freebase | ≥ 182 | about 0.16% | less than 0.10% | more stable than crystalline hemiedisylate salt form I |  |
| CCOc1nc(CC)c(CNC(=O)[C@@H](S)CC(C)C)n1Cc1ccc(-c2ccccc2C(=O)O)cc1F [hemiedisylate salt form I, Crystalline Hemiedisylate Salt Form I of 4′-{2-Ethoxy-4-ethyl-5-[((S)-2-mercapto-4-methylpentanoylamino)methyl]imidazol-1-ylmethyl}-3′-fluorobiphenyl-2-carboxylic Acid] |  |  |  |  | ≥ 158 | about 0.38% | less than 0.26% |  |  |
| CCOc1nc(CC)c(CNC(=O)[C@@H](S)CC(C)C)n1Cc1ccc(-c2ccccc2C(=O)O)cc1F [heminapadisylate form, Crystalline Heminapadisylate Salt of 4′-{2-Ethoxy-4-ethyl-5-[((S)-2-mercapto-4-methylpentanoylamino)methyl]imidazol-1-ylmethyl}-3′-fluorobiphenyl-2-carboxylic Acid] | −0.1 |  | more stable than the previously known freebase form | more soluble than the freebase | ≥ 181 | about 0.97% | less than 0.68% |  |  |
| CCOc1nc(CC)c(CNC(=O)[C@@H](S)CC(C)C)n1Cc1ccc(-c2ccccc2C(=O)O)cc1F [mono-oxalate salt, Crystalline Mono-oxalate Salt of 4′-{2-Ethoxy-4-ethyl-5-[((S)-2-mercapto-4-methylpentanoylamino)methyl]imidazol-1-ylmethyl}-3′-fluorobiphenyl-2-carboxylic Acid] |  |  |  |  | ≥ 140 |  |  |  | picks up moisture gradually from 5% RH to 90% RH, and loses the moisture during drying segment |
